Usually IC50 stands for the concentration at which inhibition is half-maximal.

These results are taken from US4920134A, “2-O-pyrimidinyl glycerol derivatives” (Takeda Chemical Industries, Ltd., priority 1987, dated 1990).

Experiment [1] deals with Sarcoma 180 cells. The experiment in a line: Antitumor activity in ICR mice inoculated with Sarcoma 180 cells. It counts as in vivo. The conditions noted are these: Sarcoma 180, ICR mice, i.p., 0.33 mg/mouse; for life-span prolongation ratio T/C: 3 times (1 hour, 1 day, 2 days after inoculation), calculated only on survival days of died mice; for No. of survivors/No. of tested animals: 3 times, on the 60th day. How it is done:
(§1) Antitumor activity of compounds in Examples
ICR mice were intraperitoneally inoculated with 1×10^5 Sarcoma 180 cells per mouse, and then intraperitoneally given 0.33 mg/mouse of a compound of Examples dissolved in physiological saline, three times in total, i.e. 1 hour, 1 day and 2 days after the inoculation. The life-span prolongation ratio* (T/C %) against the control group without medication and the number of surviving mice on the 60th day are shown in Table 2.
*Calculated only on the survival days of died mice.

Experiment [2] has as its system murine breast cancer MM46 cells. Description: Antitumor activity in C3H mice inoculated with murine breast cancer MM46 cells. The conditions noted are these: i.p., 0.25 mg/mouse per administration; for life-span prolongation ratio T/C: once a day for 4 days from 2nd day, calculated only on survived days of died mice; for No. of survivors/No. of tested animals: once a day for 4 days, on the 60th day. It counts as in vivo, C3 H mice.
Description: as §1
C3 H mice were intraperitoneally inoculated with 1×10^4 murine breast cancer MM46 cells, and then intraperitoneally given a compound of Examples dissolved in physiological saline once a day for 4 days from the 2nd day after the inoculation. The life-span prolongation ratio* (T/C %) against the control group without medication and the number of surviving mice on the 60th day are shown in Table 3.
*Calculated only on the survived days of died mice

The test system of experiment [3] is HL-60 cells. Description: Proliferation-inhibitory effect against human myelocytic leukemia HL-60 cells ([3H]thymidine incorporation). It counts as cell-based. The conditions noted are these: 20 h + 4 h with [3H]thymidine, 37° C. How it is done: Proliferation-inhibitory effect (IC50) of compounds in Examples against human myelocytic leukemia HL-60 cells HL-60 cells (human leukemia cell line) were suspended in GIT medium (Wako Pure Chemicals) containing a test compound to a concentration of 2×10^5 cells/ml, and 0.2 ml of the suspension was transferred to each well of a microwell plate having 96 wells. […] To determine the amount of thymidine incorporated into the cells, an acid-insoluble fraction was collected by a glass filter, and the radioactivity was measured by a liquid scintillation counter. The concentration of the drug which was required for 50% reduction of incorporated radioactivity from that of the control group without medication was taken as the IC50 value of the compound.
(In general: Dividing cells build labelled thymidine or BrdU into new DNA.)

Experiment [4] deals with P388 cells. The experiment in a line: Antitumor activity in CDF1 mice inoculated with P388 cells. The conditions noted are these: i.p., 0.5 mg/mouse, twice (1 hour and 5 days after inoculation). It counts as in vivo. As for the experimental part: CDF1 mice (5 heads per group) were intraperitoneally inoculated with 1×10^6 P388 cells per mouse, and then intraperitoneally given 0.5 mg/mouse of the compound in Example 2 dissolved in physiological saline, twice in total, i.e. 1 hour and 5 days after the inoculation. The life-span prolongation ratio (T/C %) against the control group without medication was 151%.

As for `CCCCCCCCCCCCCCCCCCOCC(COCCOCC[N+](C)(C)C)Oc1ncccn1.[Cl-]` (stereo not shown) [Example 1, N-2-[2-[3-Octadecyloxy-2-(pyrimidin-2-yloxy)propoxy]ethoxy]ethyl-N,N,N-trimethylammonium chloride], in experiment [1], the “life-span prolongation ratio T/C” value is reported as 200% and the “No. of survivors/No. of tested animals” value is 0/5. Besides, in experiment [2], the “life-span prolongation ratio T/C” value was 160% and the “No. of survivors/No. of tested animals” value is reported as 4/5. For the same molecule, the IC50 in experiment [3] turned out to be 0.63 µg/mL.
`CCCCCCCCCCCCCCCCCCOCC(COCCOCC[N+](C)(C)C)Oc1ccc(Cl)nn1` (stereo not shown) [Example 2, N-[2-[2-[2-(3-Chloropyridazine-6-yloxy)-3-octadecyloxy]propoxy]ethoxy]ethyl-N,N,N-trimethylammonium chloride]: in experiment [2], the “life-span prolongation ratio T/C” value is given as 174% and the “No. of survivors/No. of tested animals” value is 1/5. Besides, the IC50 in experiment [3] worked out at 1.25 µg/mL. Also, the “life-span prolongation ratio (T/C %)” value in experiment [4] is listed as 151%.
`CCCCCCCCCCCCCCCCCCOCC(COCCOCC[N+](C)(C)C)Oc1cccnn1.[Cl-]` (stereo not shown) [Example 3, N-[2-[2-[3-Octadecyloxy-2-(pyridazin-3-yloxy)propoxy]ethoxy]ethyl]-N,N,N-trimethylammonium chloride]: in experiment [1], the “life-span prolongation ratio T/C” value is 269% and the “No. of survivors/No. of tested animals” value is given as 0/5. In experiment [3], the 50% inhibitory concentration (IC50) stood at 0.32 µg/mL.
On the same counts, the results for `CCCCCCCCCCCCCCCCCCOCC(COCCOCC[n+]1ccsc1)Oc1ncccn1.[Cl-]` (stereo not shown) [Example 4, 3-[2-[2-[3-Octadecyloxy-2-(pyrimidin-2-yloxy)propoxy]ethoxy]ethyl]thiazolium chloride] are 244%, 0/4 and 2.5 µg/mL.
Consider `CCCCCCCCCCCCCCCCCCOCC(COCCOCC[n+]1cccc(C(N)=O)c1)Oc1ncccn1.[Cl-]` (stereo not shown) [Example 5, 3-Carbamoyl-1-[2-[2-[3-octadecyloxy-2-(pyrimidin-2-yloxy)propoxy]ethoxy]ethyl]pyridinium chloride], for which, in experiment [3], the IC50 worked out at 0.63 µg/mL.
In the case of `CCCCCCCCCCCCCCCCCCOCC(COCCOCC[n+]1cccc(C(=O)[O-])c1)Oc1ncccn1` (stereo not shown) [Example 6, 1-[2-[2-[3-Octadecyloxy-2-(pyrimidin-2-yloxy)propoxy]ethoxy]ethyl]pyridinio-3-carboxylate], in experiment [2], the “life-span prolongation ratio T/C” value is on record as 121% and the “No. of survivors/No. of tested animals” value is 4/5.
For the molecule `CCCCCCCCCCCCCCCCCCOCC(COCCOCC[n+]1ccc(C(C)(C)C)cc1)Oc1ncccn1` (stereo not shown) [Example 8, 4-t.-Butyl-1-[2-[2-[3-octadecyloxy-2-(pyrimidin-2-yloxy)propoxy]ethoxy]ethyl]pyridinium chloride], the half-inhibitory concentration (IC50) in experiment [3] turned out to be 1.25 µg/mL.
As to `CCCCCCCCCCCCCCCCCCOCC(COCCOCC[n+]1cccc(O)c1)Oc1ncccn1.[Cl-]` (stereo not shown) [Example 9, 3-Hydroxy-1-[2-[2-[3-octadecyloxy-2-(pyrimidin-2-yloxy)propoxy]ethoxy]ethyl]pyridinium chloride], in experiment [2], the “life-span prolongation ratio T/C” value is 132% and the “No. of survivors/No. of tested animals” value is 1/3.
Consider `CCCCCCCCCCCCCCCCCCOCC(COCCOCC[n+]1ccn(C)c1)Oc1ncccn1.[Cl-]` (stereo not shown) [Example 10, 1-Methyl-3-[2-[2-[3-octadecyloxy-2-(pyrimidin-2-yloxy)propoxy]ethoxy]ethyl]imidazolium chloride], for which the half-inhibitory concentration (IC50) in experiment [3] is 0.63 µg/mL.
The same measure, in the same setting: the same measure for `CCCCCCCCCCCCCCCCCCOCC(COCCOCC[N+](C)(C)C)Oc1ccncn1.[Cl-]` (stereo not shown) [Example 11, N-2-[2-[3-Octadecyloxy-2-(pyrimidin-4-yloxy)propoxy]ethoxy]ethyl-N,N,N-trimethylammonium chloride]: 1.25 µg/mL.
On the same count and under the same terms, with `CCCCCCCCCCCCCCCCCCOCC(COCCOCC[n+]1cccc(C(N)=O)c1)Oc1ccncn1.[Cl-]` (stereo not shown) [Example 12, 3-Carbamoyl-1-[2-[2-[3-octadecyloxy-2-(pyrimidin-4-yloxy)propoxy]ethoxy]ethyl]pyridinium chloride] the figure was 2.5 µg/mL; with `CCCCCCCCCCCCCCCCCCOCC(COCCOCCOCC[N+](C)(C)C)Oc1ncccn1.[Cl-]` (stereo not shown) [Example 14, N-2-[2-[2-[3-Octadecyloxy-2-(pyrimidin-2-yloxy)propoxy]ethoxy]ethoxy]ethyl-N,N,N-trimethylammonium chloride], 2.5 µg/mL.
